# Test system: patients with treatment-resistant major depressive disorder (TRD)
# Experiment: Phase 1/2 clinical trial of inhaled 5-MeO-DMT in TRD
# Conditions: for Patients who experienced at least one ADR: n=4; for Patients with MADRS remission: n=4, day seven after dosing
# Description: Patients were assigned to different groups. In the context of the present invention, the group who received a single, 12 mg dose and the group who underwent an intra-day individualized dosing regimen (IDR) that allowed for multiple, escalating doses (6 mg, 12 mg and 18 mg) within a single day, driven by the intensity of the patient-reported psychedelic experience are of interest.
# This trial was designed in two parts. Part A was an open-label, single-arm, single-dose Phase 1 trial with two dose levels (12 mg (n=4) and 18 mg (n=4)). […] The primary endpoint of Part B was to assess the effects on the severity of depression, as assessed by the proportion of patients in remission on day seven after dosing, defined as a MADRS total score of less than or equal to 10.
# [1] = TRD, 12 mg n=4, 2 hours after dose, baseline 16
# [2] = TRD, 12 mg n=4, 3 hours after dose, baseline 18
# [3] = TRD, 12 mg n=4, 3 hours after dose, baseline 25
# [4] = TRD, 12 mg n=4, day 1, baseline 12
# [5] = TRD, 12 mg n=4, day 1, baseline 13
# [6] = TRD, 12 mg n=4, day 1, baseline 16
# [7] = TRD, 12 mg n=4, day 1, baseline 25
# [8] = TRD, 12 mg n=4, day 7, baseline 12
# [9] = TRD, 12 mg n=4, day 7, baseline 13
# [10] = TRD, 12 mg n=4, day 7, baseline 16
# [11] = TRD, 12 mg n=4, day 7, baseline 25
# [12] = TRD, IDR n=8, 2 hours after last dose, baseline 27
# [13] = TRD, IDR n=8, 2 hours after last dose, baseline 28
# [14] = TRD, IDR n=8, day 1, baseline 25
# [15] = TRD, IDR n=8, day 1, baseline 27
# [16] = TRD, IDR n=8, day 7, baseline 25
# [17] = TRD, IDR n=8, day 7, baseline 27
# [18] = TRD, IDR n=8, day 7, baseline 30
smiles,measurement,setting,value
COc1ccc2[nH]cc(CCN(C)C)c2c1 [5-MeO-DMT],"Changes in safety laboratory analyses, vital signs, psychiatric safety assessments, measures of cognitive function",Part A and Part B,No clinically significant changes
same,SAEs reported,"Part A, 12 mg and 18 mg groups",No SAEs
same,Patients who experienced at least one ADR,"Part A, 12 mg single dose",3 of 4
same,Patients with MADRS remission,"Part A, 12 mg",50%
same,Patients who experienced at least one ADR,"Part A, 18 mg single dose",3 of 4
same,Patients with MADRS remission,"Part A, 18 mg",25%
same,Outcome of ADRs,"Part B, IDR, n=8",All ADRs resolved spontaneously
same,SAEs reported,"Part B, IDR, n=8",No SAEs
same,"MADRS Suicidal Thoughts, sum of patient scores","TRD, 12 mg n=4, 2 hours after dose, baseline 8",3
same,"MADRS Inner Tension, sum of patient scores","TRD, 12 mg n=4, 2 hours after dose, baseline 13",2
same,"MADRS Concentration Difficulties, sum of patient scores",[1],7
same,"MADRS Inability to Feel, sum of patient scores",[1],9
same,"MADRS Lassitude, percentage improvement",[1],38%
same,"MADRS Lassitude, sum of patient scores",[1],10
same,"MADRS Pessimistic Thoughts, percentage improvement",[1],50.00%
same,"MADRS Pessimistic Thoughts, sum of patient scores",[1],8
same,"BPRS Blunted Affect, sum of patient scores","TRD, 12 mg n=4, 3 hours after dose, baseline 11",8
same,"BPRS Emotional Withdrawal, sum of patient scores","TRD, 12 mg n=4, 3 hours after dose, baseline 13",11
same,"BPRS Tension, sum of patient scores","TRD, 12 mg n=4, 3 hours after dose, baseline 14",9
same,"BPRS Guilt Feelings, percentage improvement",[2],50.00%
same,"BPRS Guilt Feelings, sum of patient scores",[2],9
same,"BPRS Anxiety, percentage improvement",[3],56.00%
same,"BPRS Anxiety, sum of patient scores",[3],11
same,"MADRS Suicidal Thoughts, sum of patient scores","TRD, 12 mg n=4, day 1, baseline 8",5
same,"BPRS Blunted Affect, sum of patient scores","TRD, 12 mg n=4, day 1, baseline 11",6
same,"MADRS Reduced Sleep, percentage improvement",[4],17%
same,"MADRS Reduced Sleep, sum of patient scores",[4],10
same,"BPRS Emotional Withdrawal, sum of patient scores",[5],8
same,"MADRS Inner Tension, sum of patient scores",[5],3
same,"BPRS Tension, sum of patient scores","TRD, 12 mg n=4, day 1, baseline 14",6
same,"MADRS Concentration Difficulties, sum of patient scores",[6],2
same,"MADRS Inability to Feel, sum of patient scores",[6],1
same,"MADRS Lassitude, percentage improvement",[6],100%
same,"MADRS Lassitude, sum of patient scores",[6],0
same,"MADRS Pessimistic Thoughts, sum of patient scores",[6],7
same,"BPRS Guilt Feelings, sum of patient scores","TRD, 12 mg n=4, day 1, baseline 18",5
same,"BPRS Anxiety, percentage improvement",[7],76.00%
same,"BPRS Anxiety, sum of patient scores",[7],6
same,"MADRS Suicidal Thoughts, sum of patient scores","TRD, 12 mg n=4, day 7, baseline 8",7
same,"BPRS Blunted Affect, sum of patient scores","TRD, 12 mg n=4, day 7, baseline 11",5
same,"MADRS Reduced Sleep, percentage improvement",[8],50%
same,"MADRS Reduced Sleep, sum of patient scores",[8],6
same,"BPRS Emotional Withdrawal, sum of patient scores",[9],6
same,"MADRS Inner Tension, sum of patient scores",[9],5
same,"BPRS Tension, sum of patient scores","TRD, 12 mg n=4, day 7, baseline 14",6
same,"MADRS Concentration Difficulties, sum of patient scores",[10],3
same,"MADRS Inability to Feel, sum of patient scores",[10],1
same,"MADRS Lassitude, percentage improvement",[10],81%
same,"MADRS Lassitude, sum of patient scores",[10],3
same,"MADRS Pessimistic Thoughts, percentage improvement",[10],50.00%
same,"MADRS Pessimistic Thoughts, sum of patient scores",[10],8
same,"BPRS Guilt Feelings, sum of patient scores","TRD, 12 mg n=4, day 7, baseline 18",5
same,"BPRS Anxiety, percentage improvement",[11],76.00%
same,"BPRS Anxiety, sum of patient scores",[11],6
same,"MADRS Suicidal Thoughts, sum of patient scores","TRD, IDR n=8, 2 hours after last dose, baseline 11",3
same,"MADRS Inner Tension, sum of patient scores","TRD, IDR n=8, 2 hours after last dose, baseline 26",11
same,"MADRS Lassitude, percentage improvement",[12],63%
same,"MADRS Lassitude, sum of patient scores",[12],10
same,"MADRS Pessimistic Thoughts, percentage improvement",[13],75.00%
same,"MADRS Pessimistic Thoughts, sum of patient scores",[13],7
same,"MADRS Concentration Difficulties, sum of patient scores","TRD, IDR n=8, 2 hours after last dose, baseline 30",11
same,"MADRS Inability to Feel, sum of patient scores","TRD, IDR n=8, 2 hours after last dose, baseline 36",12
same,"BPRS Emotional Withdrawal, sum of patient scores","TRD, IDR n=8, 3 hours after last dose, baseline 13",8
same,"BPRS Blunted Affect, sum of patient scores","TRD, IDR n=8, 3 hours after last dose, baseline 15",11
same,"BPRS Tension, sum of patient scores","TRD, IDR n=8, 3 hours after last dose, baseline 16",11
same,"BPRS Guilt Feelings, sum of patient scores","TRD, IDR n=8, 3 hours after last dose, baseline 34",14
same,"BPRS Anxiety, sum of patient scores","TRD, IDR n=8, 3 hours after last dose, baseline 37",19
same,"MADRS Suicidal Thoughts, sum of patient scores","TRD, IDR n=8, day 1, baseline 11",1
same,"BPRS Emotional Withdrawal, sum of patient scores","TRD, IDR n=8, day 1, baseline 13",8
same,"BPRS Blunted Affect, sum of patient scores","TRD, IDR n=8, day 1, baseline 15",8
same,"BPRS Tension, sum of patient scores","TRD, IDR n=8, day 1, baseline 16",11
same,"MADRS Reduced Sleep, percentage improvement",[14],52%
same,"MADRS Reduced Sleep, sum of patient scores",[14],12
same,"MADRS Inner Tension, sum of patient scores","TRD, IDR n=8, day 1, baseline 26",6
same,"MADRS Lassitude, percentage improvement",[15],81%
same,"MADRS Lassitude, sum of patient scores",[15],5
same,"MADRS Pessimistic Thoughts, sum of patient scores","TRD, IDR n=8, day 1, baseline 28",4
same,"MADRS Concentration Difficulties, sum of patient scores","TRD, IDR n=8, day 1, baseline 30",1
same,"BPRS Guilt Feelings, sum of patient scores","TRD, IDR n=8, day 1, baseline 34",11
same,"MADRS Inability to Feel, sum of patient scores","TRD, IDR n=8, day 1, baseline 36",2
same,"BPRS Anxiety, sum of patient scores","TRD, IDR n=8, day 1, baseline 37",16
same,"MADRS Suicidal Thoughts, sum of patient scores","TRD, IDR n=8, day 7, baseline 11",3
same,"BPRS Emotional Withdrawal, sum of patient scores","TRD, IDR n=8, day 7, baseline 13",8
same,"BPRS Blunted Affect, sum of patient scores","TRD, IDR n=8, day 7, baseline 15",8
same,"BPRS Tension, sum of patient scores","TRD, IDR n=8, day 7, baseline 16",10
same,"MADRS Reduced Sleep, percentage improvement",[16],64%
same,"MADRS Reduced Sleep, sum of patient scores",[16],9
same,"MADRS Inner Tension, sum of patient scores","TRD, IDR n=8, day 7, baseline 26",12
same,"MADRS Lassitude, percentage improvement",[17],89%
same,"MADRS Lassitude, sum of patient scores",[17],3
same,"MADRS Pessimistic Thoughts, sum of patient scores","TRD, IDR n=8, day 7, baseline 28",3
same,"MADRS Concentration Difficulties, percentage improvement",[18],70.00%
same,"MADRS Concentration Difficulties, sum of patient scores",[18],9
same,"BPRS Guilt Feelings, sum of patient scores","TRD, IDR n=8, day 7, baseline 34",10
same,"MADRS Inability to Feel, sum of patient scores","TRD, IDR n=8, day 7, baseline 36",6
same,"BPRS Anxiety, sum of patient scores","TRD, IDR n=8, day 7, baseline 37",17

# — patent US20250241892A1, “5-METHOXY-N,N-[…][…] THE TREATMENT OF PSYCHOMOTOR RETARDATION” (GH RESEARCH IRELAND LIMITED, priority 2022, published 2025)
